Earlier results in PMC3074188 (Journal of natural products, 2010).

System: HT-29 cell line

CC(C)C[C@H](NC(=O)[C@H](Cc1ccccc1)NC(=O)c1cnccn1)B(O)O [bortezomib]
sensitivity of HT-29 cell line (in words): sensitive
